Results reported in ChEMBL document CHEMBL4196043, “Discovery and optimization of 2-thio-5-amino substituted benzoquinones as potent anticancer agents” (Eur J Med Chem, 2018).

Assays:
BGC-823 = test: Growth inhibition of human BGC823 cells at 10 uM; type: functional; details: read-out: GI
PC-3 [1] = test: Antiproliferative activity against human PC3 cells after 48 hrs by MTS assay; type: functional, cell-based; details: PC-3, 48 h
PC-3 [2] = test: Growth inhibition of human PC3 cells at 10 uM after 48 hrs by MTS assay; type: functional; details: PC-3, 48 h, read-out: GI
A549 [3] = test: Growth inhibition of human A549 cells at 10 uM after 48 hrs by MTS assay; type: functional; details: A549, 48 h, read-out: GI
HCT-116 = test: Antiproliferative activity against human HCT116 cells after 48 hrs by MTS assay; type: functional, cell-based; details: HCT-116, 48 h
MCF7 = test: Antiproliferative activity against human MCF7 cells after 48 hrs by MTS assay; type: functional, cell-based; details: MCF7, 48 h
A-375 = test: Antiproliferative activity against human A375 cells after 48 hrs by MTS assay; type: functional, cell-based; details: A-375, 48 h
A549 [4] = test: Antiproliferative activity against human A549 cells after 48 hrs by MTS assay; type: functional, cell-based; details: A549, 48 h
[5] = Aqueous solubility of the compound in water by HPLC-UV spectrophotometric analysis; type: physicochemical
[6] = Selectivity index, ratio of IC50 for human HELF to IC50 for human PC3 cells; type: toxicity; details: HELF cells and PC3 cells, read-out: Ratio IC50
SW480 = test: Antiproliferative activity against human SW480 cells after 48 hrs by MTS assay; type: functional, cell-based; details: SW480, 48 h
[7] = Antiproliferative activity against human HELF after 48 hrs by MTS assay

Row | IC50 (PC-3 [1]) | SMILES | inhibition of growth at 10 µM (PC-3 [2]) | further results
1 | 5000 nM | C=CCSC1=CC(=O)C(NCC(C)O)=CC1=O (stereo not drawn) | 88% | inhibition of growth at 10 µM (BGC-823): 88.5%; inhibition of growth at 10 µM (A549 [3]): 85.5%
2 | 720 nM | C=CCSC1=CC(=O)C(NCCO)=CC1=O |  | 
3 | 3980 nM | C=CCSC1=CC(=O)C(NCC(O)CO)=CC1=O (stereo not drawn) |  | 
4 | 461 nM | C=CCSC1=CC(=O)C(NCCCCO)=CC1=O |  | 
5 | 678 nM | C=CCSC1=CC(=O)C(NCCCO)=CC1=O |  | 
6 | 2770 nM | C=CCSC1=CC(=O)C(NCCNC(C)=O)=CC1=O |  | 
7 | 224 nM | C=CCSC1=CC(=O)C(N[C@H]2CC[C@H](N)CC2)=CC1=O.Cl |  | IC50 (HCT-116): 408 nM; IC50 (MCF7): 259 nM; IC50 (A-375): 220 nM; IC50 (A549 [4]): 376 nM; solubility [5]: 23.2 mg/mL; selectivity ratio [6]: 47; IC50 (SW480): 1220 nM; IC50 [7]: 10500 nM
8 | 1460 nM | C=CCSC1=CC(=O)C(NCCCN2CCOCC2)=CC1=O |  | 
9 | 701 nM | C=CCSC1=CC(=O)C(NCCP(=O)(OCC)OCC)=CC1=O |  | 
10 | 1540 nM | C=CCSC1=CC(=O)C(NCCS(C)(=O)=O)=CC1=O |  | 
11 | 314 nM | C=CCSC1=CC(=O)C(NCCCNC)=CC1=O.Cl |  | solubility [5]: > 200 mg/mL
12 | 394 nM | C=CCSC1=CC(=O)C(NCCOCCO)=CC1=O |  | 
13 | 4670 nM | C=CCSC1=CC(=O)C(NCCC(=O)OC)=CC1=O |  | 
14 | 483 nM | C=CCSC1=CC(=O)C(N[C@H]2CC[C@@H](N)CC2)=CC1=O |  | 
15 | 910 nM | C=CCSC1=CC(=O)C(NCCCN(C)C)=CC1=O.Cl |  | solubility [5]: > 200 mg/mL
16 | 330 nM | C=CCSC1=CC(=O)C(N[C@H]2CC[C@H](O)CC2)=CC1=O |  | solubility [5]: < 1 mg/mL

The remaining lines, values behind:

Row | SMILES | IC50 (PC-3 [1]) | inhibition of growth at 10 µM (PC-3 [2]) | further results
17 | C=C(CSC1=CC(=O)C(NCC(C)O)=CC1=O)c1ccccc1 (stereo not drawn) |  | 11.8% | 
18 | CC(O)CNC1=CC(=O)C(SC/C=C/c2ccc(F)cc2)=CC1=O (stereo not drawn) |  | 12.2% | 
19 | C/C=C/CSC1=CC(=O)C(NCC(C)O)=CC1=O (stereo not drawn) |  | 67.6% | 
20 | CC(O)CNC1=CC(=O)C(SC2C=CCCC2)=CC1=O (stereo not drawn) |  | 46.9% | 
21 | C=CCSC1=CC(=O)C(NCCN2CCNC2=O)=CC1=O | 2190 nM |  | 
22 | CC(O)CNC1=CC(=O)C(SC/C=C/c2cccnc2)=CC1=O (stereo not drawn) |  | 9.45% | 
23 | C=C(C)CSC1=CC(=O)C(NCC(C)O)=CC1=O (stereo not drawn) |  | 61.9% | 
24 | C=CCSC1=CC(=O)C(NCCCN)=CC1=O | 1570 nM |  | 
25 | C=C(Cl)CSC1=CC(=O)C(NCC(C)O)=CC1=O (stereo not drawn) |  | 20% | 
26 | CC(O)CNC1=CC(=O)C(SC/C=C/c2ccccc2)=CC1=O (stereo not drawn) |  | 3.75% | 
27 | C=CCSC1=CC(=O)C(NCCCNCCO)=CC1=O | 2170 nM |  | 
28 | C=CCSC1=CC(=O)C(NCCCl)=CC1=O | 602 nM |  | 
29 | COc1ccccc1/C=C/CSC1=CC(=O)C(NCC(C)O)=CC1=O (stereo not drawn) |  | 5.9% | 
